PMC11684029, “Discovery of VU6024578/BI02982816: An mGlu1 Positive Allosteric Modulator with Efficacy in Preclinical Antipsychotic and Cognition Models” (Journal of Medicinal Chemistry, 2024)
Where two headings read alike, the source gives them in different places.

How the values were obtained:
[1] = molecular target: 5-HT2B (Homo sapiens, UniProt P41595); test: follow-up functional assay; assay type: biochemical
[2] = IV dog PK; assay type: in vivo; conditions: 0.5 mg/kg IV; for C0: plasma
Protocol: Deeper profiling began with IV dog PK (0.5 mg/kg, n = 3 male beagles). […] Was this a mechanism-based toxicity in dog? Could there be dog-specific pharmacology of mGlu1 activation? Were these AEs derived from the 19d chemotype? Could a mGlu1/mGlu5 heterodimer be responsible for the observed AEs? […] In an attempt to address the chemotype question, we evaluated PAM 4 (VU6004909),[8] an early generation rodent in vivo tool compound, for the first time in dog PK. […] of the study with 19d, PAM 4 produced no AEs in dog. […] Therefore, more molecular pharmacology and PK studies as well as additional chemically distinct mGlu1 PAM chemotypes are required to understand the AEs elicited by an mGlu1 PAM in dogs, an otherwise very promising target for the treatment of schizophrenia.

[3] = test system: rats; test: MK-801 induced disruption of novel object recognition; assay type: in vivo; conditions: rat, p.o.
Protocol: Based on our previous work with the mGlu1 PAM 4,[6]−[9],[14]−[19] we first evaluated the ability of 19d to reverse MK-801 disruptions of novel object recognition (NOR) in rats (Figure 6).
Figure 6 Rat MK-801 induced disruption of novel object recognition and reversal by VU6024578 (19d). MK-801 (0.5 mg/kg IP) induced a robust disruption of NOR, which was dose-dependently reversed by oral administration (10% tween 80) of 19d.
The animals are habituated to the novel object arenas for 1 day prior to testing. This is accomplished by placing the animal in the arena with no objects for 10 min and then placed back into the home cage. The arena is then cleaned with 70% ethanol in between animals. The day of the test the animals are habituated to the dosing room for 2 h. The animals were administered VU6024578 (1–10 mg/kg p.o.) or vehicle (10% Tween 80) and were placed back into their homecage for 60 min. The animals were then injected with MK-801 (0.075 mg/kg 1 mL/kg s.c.) and placed back in the homecage for 30 min. […] The activity of the animals are recorded and the time spent exploring each of the objects is scored by a blinded observer. Recognition index is determined by subtracting […] divided by total time spent exploring.

[4] = test system: rats; test: rotarod; assay type: in vivo; conditions: rat, doses up to 10 mg/kg
Protocol: In order to enable our target validation work, we first profiled PAM 19d in a rat locomotor battery to ensure that pharmacodynamic efficacy was not mistaken for gross effects on locomotion.[20] […] PK was performed in parallel to establish a PK/PD relationship.[24]
On the first day, the animals were placed on the rotarod apparatus which was rotating at a speed of 20 rpm. If the rats fall of the bar, the animals were placed back on the apparatus for a total of 2 min. On the day of testing, adult male rats were pretreated with VU6024578 (1–10 mg/kg) 65 min before being placed on the rotarod apparatus. Testing consisted of accelerating rotarod from 4 to 40 rpm over 5 min. The time and final speed when the rats fall off of the apparatus was recorded.

[5] = test system: rats; test: adverse events in rats; assay type: in vivo, rat; conditions: much higher exposures than in dog
[6] = molecular target: mGlu1 (Mus musculus, UniProt P97772); test: mGlu1 PAM assay, mouse receptor; assay type: cell-based; conditions: n = 5
Protocol: Over the course of the mGlu1 PAM program, 19d became an assay standard and was assayed multiple times, affording refined potency values.[20]

[7] = molecular target: 3A4 (Homo sapiens, UniProt P08684); test: inhibition of cytochrome P450 enzymes; assay type: in vitro ADME; parameters: 0.1 mg/mL human liver microsomes (HLM) and Substrate Mix; from tissue; host or cells: human liver microsomes; conditions: human liver microsomes; read-out: CYP450 3A4 inhibition
Protocol: A cocktail of substrates for cytochrome P450 enzymes (1A2: Phenacetin, 10 μM; 2C9: Diclofenac, 5 μM; 2D6: Dextromethorphan, 5 μM; 3A4: Midazolam, 2 μM) were mixed for cocktail analysis. For P450 2C19, the substrate stock (Mephenytoin, 40 μM)and substrate mix were prepared separately for discrete analysis. The positive control for pan-P450 inhibition (miconazole) was included alongside each test compound in analysis.
A reaction mixture of 100 mM Kpi, pH 7.4, 0.1 mg/mL human liver microsomes (HLM) and Substrate Mix is prepared and aliquoted into a 96-deepwell block. Test compound and positive control (in duplicate) were then added such that the final concentration of test compound ranged from 0.1–30 μM. […]
Samples were analyzed via electrospray ionization (ESI) on an AB Sciex API-4000 (Foster City, CA) triple-quadrupole instrument that was coupled with Shimadzu LC-10AD pumps (Columbia, MD) and a Leap Technologies CTC PAL autosampler (Carrboro, NC). […]
The IC50 values for each compound were obtained for the individual CYP enzymes by quantitating the inhibition of metabolite formation for each probe substrate. A 0 μM compound condition (or control) was set to 100% enzymatic activity and the effect of increasing test compound concentrations on enzymatic activity could then be calculated from the % of control activity. […]

Chain of mGlu1 (P97772 21-1199): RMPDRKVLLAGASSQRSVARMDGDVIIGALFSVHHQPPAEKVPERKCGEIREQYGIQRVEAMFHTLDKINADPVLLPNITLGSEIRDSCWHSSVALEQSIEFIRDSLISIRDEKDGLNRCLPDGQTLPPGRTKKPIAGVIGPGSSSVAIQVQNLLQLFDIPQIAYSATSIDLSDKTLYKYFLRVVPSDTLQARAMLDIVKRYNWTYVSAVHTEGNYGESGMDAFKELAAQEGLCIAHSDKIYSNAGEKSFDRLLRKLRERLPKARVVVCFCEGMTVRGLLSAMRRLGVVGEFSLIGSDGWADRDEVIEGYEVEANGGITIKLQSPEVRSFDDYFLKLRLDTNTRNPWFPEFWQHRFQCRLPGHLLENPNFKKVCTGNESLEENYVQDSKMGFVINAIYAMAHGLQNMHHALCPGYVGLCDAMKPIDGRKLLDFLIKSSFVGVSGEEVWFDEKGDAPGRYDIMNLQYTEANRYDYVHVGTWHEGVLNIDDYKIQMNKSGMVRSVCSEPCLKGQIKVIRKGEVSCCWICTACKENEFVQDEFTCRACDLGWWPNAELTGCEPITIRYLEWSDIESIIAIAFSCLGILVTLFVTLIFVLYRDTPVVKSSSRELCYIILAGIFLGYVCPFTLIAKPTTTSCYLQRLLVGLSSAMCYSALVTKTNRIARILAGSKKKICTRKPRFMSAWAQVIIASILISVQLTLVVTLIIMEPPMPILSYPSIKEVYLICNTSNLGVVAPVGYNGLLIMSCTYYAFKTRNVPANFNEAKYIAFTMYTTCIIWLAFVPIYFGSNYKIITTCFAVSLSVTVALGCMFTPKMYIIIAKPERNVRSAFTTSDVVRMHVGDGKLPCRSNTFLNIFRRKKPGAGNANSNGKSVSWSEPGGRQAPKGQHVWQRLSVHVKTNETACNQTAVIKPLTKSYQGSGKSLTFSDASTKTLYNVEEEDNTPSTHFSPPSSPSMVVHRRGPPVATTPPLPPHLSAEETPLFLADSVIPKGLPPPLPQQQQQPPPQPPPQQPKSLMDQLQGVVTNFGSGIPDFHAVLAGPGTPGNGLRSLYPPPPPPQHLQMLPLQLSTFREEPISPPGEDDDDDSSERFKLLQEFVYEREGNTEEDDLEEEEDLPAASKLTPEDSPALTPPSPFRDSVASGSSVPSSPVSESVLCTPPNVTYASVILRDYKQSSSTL
Chain of 3A4 (P08684 whole entry): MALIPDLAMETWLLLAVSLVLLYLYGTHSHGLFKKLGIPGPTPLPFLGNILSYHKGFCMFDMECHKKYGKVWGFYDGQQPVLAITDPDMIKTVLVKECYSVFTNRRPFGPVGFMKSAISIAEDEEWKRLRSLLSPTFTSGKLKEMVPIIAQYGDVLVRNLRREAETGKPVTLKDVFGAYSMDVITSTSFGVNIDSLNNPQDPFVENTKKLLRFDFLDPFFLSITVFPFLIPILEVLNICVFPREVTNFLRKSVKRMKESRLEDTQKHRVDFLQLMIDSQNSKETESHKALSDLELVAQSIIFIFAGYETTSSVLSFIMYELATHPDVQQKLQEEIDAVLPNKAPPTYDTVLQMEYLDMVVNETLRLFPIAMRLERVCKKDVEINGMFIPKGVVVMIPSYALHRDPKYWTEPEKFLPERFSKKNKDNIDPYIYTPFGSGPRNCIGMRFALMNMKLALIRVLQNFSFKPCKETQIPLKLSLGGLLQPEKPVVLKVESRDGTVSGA
Chain of 5-HT2B (P41595 whole entry): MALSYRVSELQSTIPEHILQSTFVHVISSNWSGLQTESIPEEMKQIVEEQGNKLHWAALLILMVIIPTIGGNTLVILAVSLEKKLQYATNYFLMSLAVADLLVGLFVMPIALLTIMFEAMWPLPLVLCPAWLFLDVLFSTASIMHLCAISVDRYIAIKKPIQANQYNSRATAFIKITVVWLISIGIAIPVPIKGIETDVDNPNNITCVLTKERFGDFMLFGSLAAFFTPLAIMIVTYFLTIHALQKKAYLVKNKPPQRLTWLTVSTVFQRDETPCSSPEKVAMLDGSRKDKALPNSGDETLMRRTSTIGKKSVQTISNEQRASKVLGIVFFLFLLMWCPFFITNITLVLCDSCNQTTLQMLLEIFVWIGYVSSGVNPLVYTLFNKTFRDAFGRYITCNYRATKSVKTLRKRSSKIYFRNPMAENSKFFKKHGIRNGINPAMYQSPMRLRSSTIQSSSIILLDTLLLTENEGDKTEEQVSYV

Question: With Cn1nc(-c2ccnn2C)cc1CNC(=O)c1cc(-c2ccco2)ccc1Cl [Compound 19d, 2-Chloro-N-((1,2′-dimethyl-1H,2’H-[3,3′-bipyrazol]-5-yl)methyl)-5-(furan-2-yl)benzamide] as the molecule, how does the “functional activity at 5-HT2B” value [1] read?
Answer: inactive

Question: What about the CLp [2] of the same molecule?
Answer: 5.4 mL/min/kg

Question: And the Vss [2]?
Answer: 0.92 L/kg

Question: What about the t1/2 [2] of the same molecule?
Answer: 3.6 h

Question: What about the C0 ([2]; read-out: C0 exposure, total) of the same molecule?
Answer: 2050 nM

Question: What about the C0 ([2]; male, beagle, iv, 0.5 mg/kg, read-out: C0 exposure, unbound) of the same molecule?
Answer: 80 nM

Question: And the “minimum effective dose (MED), MK-801 disrupted NOR” value [3]?
Answer: 10 mg/kg

Question: What about the rotarod [4] of the same molecule?
Answer: lack of effect

Question: And the “adverse events (AEs) in rats” value [5]?
Answer: no AEs

Question: And the EC50 [6]?
Answer: 0.027 µM

Question: What about the “mouse mGlu1 Glumax” value [6] of the same molecule?
Answer: 89%

Question: What about the “mouse mGlu1 pEC50” value [6] of the same molecule?
Answer: 7.59 ± 0.07

Question: What about the IC50 [7] of the same molecule?
Answer: 22 µM
